We go through 29 molecules from US11390609B2, “Rho-associated protein kinase inhibitor, pharmaceutical composition comprising same, and preparation method and use thereof” (BEIJING TIDE PHARMACEUTICAL CO., LTD., priority 2017, dated 2022).

SMILES strings stand for the structures.

In this test the target is ROCK1 (Homo sapiens (Human), UniProt Q13464). Kind of test: ROCK1 kinase IC50 assay (biological test method similar to the ROCK2 assay). The format is biochemical. On the procedure:
The kinase IC50 was determined by a commercialized CISBIO kinase detection kit, HTRF KinEASE-STK S2 kit (62ST2PEC). ROCK2 (01-119) employed in the reaction was purchased from Carna Biosciences.
Before the assay, the following working solutions as needed were formulated with corresponding reagents according to the instruction of the kinase detection kit: 1×kinase buffer, 5×STK-52 substrate working solution (1.5 μM) and 5×ATP working solution (1.5 μM), 5×ROCK2 kinase working solution, 4×Streptavidin-XL665 working solution, and 4×STK-Ab-Cryptate 2 detection solution. Then the assay was performed according to the following procedure.
A solution of a compound at a concentration of 10000 nM was prepared with the 1×kinase buffer containing 2.5% DMSO. Gradient dilution of the solution of the compound was performed with the kinase buffer containing DMSO, so as to obtain solutions of a test compound at 9 different concentrations. In addition to wells of test compounds, a positive well (containing all the reagents except the compound) and a negative well (containing all the reagents except the test compound and kinase) were set. Except for the control wells (positive and negative wells), a solution of a test compound (4 μL) was added to each of the reaction wells, and a solution of 2.5% DMSO was added to the control wells. Then the substrate ([…], 2 μL. 5×STK-S2 substrate working solution) was added to each of the reaction wells. The 5×ROCK2 kinase working solution (2 μL, containing 1.4 ng ROCK2 kinase) was added to each of the reaction wells except for the negative well, the volume of which was made up with the 1×kinase buffer (2 μL). The 5×ATP working solution (2 μL) was added to each of the reaction wells, and the mixtures were incubated at room temperature for 2 hours. After the kinase reaction was complete, the 4×Streptavidin-XL665 working solution was added to each of the reaction wells, the solutions were mixed, followed by immediate addition of the 4×STK-Ab-Cryptate 2 detection solution (5 μL), and the mixtures were incubated at room temperature for 1 hour. The fluorescence signal was read on ENVISION (Perkinelmer) (excitation wavelength: 320 nm, and emission wavelength: 665 nm and 615 nm). The inhibitory rate in each well was calculated based on the fluorescence intensity value: ER (Emission Ratio)=(fluorescence intensity at 665 nm/fluorescence intensity at 615 nm); inhibitory rate=(ERpositive−ERtest compound)/(ERpositive−ERnegative)*100%. Curves were plotted and fitted to obtain the median inhibitory concentration (IC50) of each teat compound with the PRISM 5.0 software.
According to a biological test method similar to the above, the IC50 values of the compounds on ROCK1 were tested.

Chain of ROCK1 (Q13464 whole entry, species assumed): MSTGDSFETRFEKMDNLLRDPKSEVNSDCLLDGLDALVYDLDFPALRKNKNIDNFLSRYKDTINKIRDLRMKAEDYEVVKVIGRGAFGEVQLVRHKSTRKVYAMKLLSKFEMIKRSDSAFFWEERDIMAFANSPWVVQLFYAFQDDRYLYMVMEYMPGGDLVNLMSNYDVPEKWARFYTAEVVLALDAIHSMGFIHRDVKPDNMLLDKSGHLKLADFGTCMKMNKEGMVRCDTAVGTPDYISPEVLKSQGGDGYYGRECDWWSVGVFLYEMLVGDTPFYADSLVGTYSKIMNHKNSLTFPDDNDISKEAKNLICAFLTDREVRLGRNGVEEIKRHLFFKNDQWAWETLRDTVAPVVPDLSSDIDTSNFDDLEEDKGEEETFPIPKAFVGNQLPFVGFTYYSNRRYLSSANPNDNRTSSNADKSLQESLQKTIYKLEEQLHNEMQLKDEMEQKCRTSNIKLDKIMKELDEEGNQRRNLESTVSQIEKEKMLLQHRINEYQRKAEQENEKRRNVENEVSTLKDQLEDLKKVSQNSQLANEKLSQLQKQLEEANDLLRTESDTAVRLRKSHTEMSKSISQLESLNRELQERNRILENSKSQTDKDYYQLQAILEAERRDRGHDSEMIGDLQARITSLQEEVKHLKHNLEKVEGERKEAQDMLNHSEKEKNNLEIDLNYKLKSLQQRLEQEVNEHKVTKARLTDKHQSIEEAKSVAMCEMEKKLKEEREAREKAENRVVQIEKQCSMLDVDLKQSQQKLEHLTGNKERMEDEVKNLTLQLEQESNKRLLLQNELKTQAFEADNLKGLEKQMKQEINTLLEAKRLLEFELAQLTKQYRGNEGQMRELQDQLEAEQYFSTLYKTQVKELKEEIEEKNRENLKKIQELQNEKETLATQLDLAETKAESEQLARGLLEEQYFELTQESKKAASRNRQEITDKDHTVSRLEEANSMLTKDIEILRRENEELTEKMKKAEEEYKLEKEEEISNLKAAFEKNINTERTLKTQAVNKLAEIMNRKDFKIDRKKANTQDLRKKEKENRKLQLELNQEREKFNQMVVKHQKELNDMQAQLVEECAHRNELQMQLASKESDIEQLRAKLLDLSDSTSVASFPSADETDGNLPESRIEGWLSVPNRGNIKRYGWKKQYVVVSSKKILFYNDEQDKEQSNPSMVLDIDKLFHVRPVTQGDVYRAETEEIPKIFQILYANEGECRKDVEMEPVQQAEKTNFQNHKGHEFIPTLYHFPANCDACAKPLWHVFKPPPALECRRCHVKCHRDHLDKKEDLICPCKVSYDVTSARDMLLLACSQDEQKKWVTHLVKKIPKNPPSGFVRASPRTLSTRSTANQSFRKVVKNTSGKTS

`O=C(Nc1ccc2[nH]ncc2c1)c1cc2ccc(-c3nccc(Nc4ccc5[nH]ncc5c4)n3)cc2[nH]1` [TDI01182, 6-(4-((1H-indazol-5-yl)amino)-pyrimidin-2-yl)-N-(1H-indazol-5-yl)-1H-indole-2-carboxamide]: the 50% inhibitory concentration (IC50) turned out to be 712 nM.

Turning to `O=C(Nc1ccnnc1)c1cc2cc(-c3nccc(Nc4ccc5[nH]ncc5c4)n3)ccc2[nH]1` [TDI01188, 5-(4-((1H-indazol-5-yl)amino)-pyrimidin-2-yl)-N-(pyridazin-4-yl)-1H-indole-2-carboxamide], 1280 nM corresponded to half-maximal inhibition (IC50). As to `O=C(Nc1ccnnc1)c1c[nH]c2ccc(-c3nccc(Nc4ccc5[nH]ncc5c4)n3)cc12` [TDI01191, 5-(4-((1H-indazol-5-yl)amino)-pyrimidin-2-yl)-N-(pyridazin-4-yl)-1H-indole-3-carboxamide], the IC50 worked out at 2530 nM. Consider `O=C(Nc1cn[nH]c1)c1cc2ccc(-c3nccc(Nc4ccc5[nH]ncc5c4)n3)cc2[nH]1` [TDI01199, 6-(4-((1H-indazol-5-yl)amino)-pyrimidin-2-yl)-N-(1H-pyrazol-4-yl)-1H-indole-2-carboxamide], for which the IC50 stood at 1100 nM. With `CC(C)(C)OC(=O)n1cc(NC(=O)c2cc3ccc(-c4nccc(Nc5ccc6[nH]ncc6c5)n4)cc3[nH]2)cn1` [TDI01200, tert-butyl 4-(6-(4-((1H-indazol-5-yl)amino)-pyrimidin-2-yl)-1H-indole-2-carboxamido)-1H-pyrazole-1-carboxylate] the figure was 559 nM; with `Cn1c(C(=O)Nc2ccnnc2)cc2ccc(-c3nccc(Nc4ccc5[nH]ncc5c4)n3)cc21` [TDI01201, 6-(4-((1H-indazol-5-yl)amino)-pyrimidin-2-yl)-1-methyl-N-(pyridazin-4-yl)-1H-indole-2-carboxamide], 6920 nM; with `O=C(Nc1ccnnc1)c1cc2ccc(-c3ncc(F)c(Nc4ccc5[nH]ncc5c4)n3)cc2[nH]1` [TDI01213, 6-(4-((1H-indazol-5-yl)amino)-5-fluoropyrimidin-2-yl)-N-(pyridazin-4-yl)-1H-indole-2-carboxamide], > 10000 nM. To `CN1CCN(CC(=O)n2ccc3ccc(-c4nccc(Nc5ccc6[nH]ncc6c5)n4)cc32)CC1` [TDI01230, 1-(6-(4-((1H-indazol-5-yl)amino)pyrimidin-2-yl)-1H-indol-1-yl)-2-(4-methylpiperazin-1-yl)ethan-1-one] belongs 1500 nM; to `Cc1nc(-c2ccc3cc(C(=O)Nc4ccnnc4)[nH]c3c2)nc(Nc2ccc3[nH]ncc3c2)c1C` [TDI01232, 6-(4-((1H-indazol-5-yl)amino)-5,6-dimethyl-pyrimidin-2-yl)-N-(pyridazin-4-yl)-1H-indole-2-carboxamide], > 10000 nM. With `O=C(Nc1ccnnc1)c1ccc2ccc(-c3nccc(Nc4ccc5[nH]ncc5c4)n3)cc2n1` [TDI01236, 7-(4-((1H-indazol-5-yl)ami-no)pyrimidin-2-yl)-N-(pyridazin-4-yl)quinoline-2-carboxamide] the figure was > 10000 nM; with `O=C(Nc1ccnnc1)N1Cc2ccc(-c3nccc(Nc4ccc5[nH]ncc5c4)n3)cc2C1` [TDI01237, 5-(4-((1H-indazol-5-yl)amino)pyrimidin-2-yl)-N-(pyridazin-4-yl)isoindoline-2-carboxamide], > 10000 nM.

As for `O=C(Nc1nncs1)c1cc2ccc(-c3nccc(Nc4ccc5[nH]ncc5c4)n3)cc2[nH]1` [TDI01247, 6-(4-((1H-indazol-5-yl)amino)pyrimidin-2-yl)-N-(1,3,4-thiadiazol-2-yl)-1H-indole-2-carboxamide], the IC50 is > 10000 nM. As for `Cc1cnc(-c2ccc3cc(C(=O)Nc4ccnnc4)[nH]c3c2)nc1Nc1ccc2[nH]ncc2c1` [TDI01250, 6-(4-((1H-indazol-5-yl)amino)-5-methyl-pyrimidin-2-yl)-N-(pyridazin-4-yl)-1H-indole-2-carboxamide], the IC50 is > 10000 nM. With `Cc1cc(Nc2ccc3[nH]ncc3c2)nc(-c2ccc3cc(C(=O)Nc4ccnnc4)[nH]c3c2)n1` [TDI01251, 6-(4-((1H-indazol-5-yl)amino)-6-methyl-pyrimidin-2-yl)-N-(pyridazin-4-yl)-1H-indole-2-carboxamide] the figure was > 10000 nM; with `Cc1c(Nc2ccnc(-c3ccc4cc(C(=O)Nc5ccnnc5)[nH]c4c3)n2)ccc2[nH]ncc12` [TDI01276, 6-(4-((4-methyl-1H-indazol-5-yl)amino)-pyrimidin-2-yl)-N-(pyridazin-4-yl)-1H-indole-2-carboxamide], > 10000 nM; with `CC(C)NC(=O)c1cc2ccc(-c3nccc(Nc4ccc(-c5cn[nH]c5)cc4)n3)cc2[nH]1` [TDI01280, 6-(4-((4-(1H-pyrazol-4-yl)phenyl)ami-no)pyrimidin-2-yl)-N-isopropyl-1H-indole-2-carboxamide], 1020 nM.

As for `CN(C)c1cnccc1NC(=O)c1cc2ccc(-c3nccc(Nc4ccc5[nH]ncc5c4)n3)cc2[nH]1` [TDI01289, 6-(4-((1H-indazol-5-yl)amino)-pyrimidin-2-yl)-N-(3-(dimethylamino)-pyridin-4-yl)-1H-indole-2-carboxamide], 980 nM corresponded to half-maximal inhibition (IC50).

With `O=C(Nc1ccncc1Cl)c1cc2ccc(-c3nccc(Nc4ccc5[nH]ncc5c4)n3)cc2[nH]1` [TDI01290, 6-(4-((1H-indazol-5-yl)amino)-pyrimidin-2-yl)-N-(3-chloropyridin-4-yl)-1H-indole-2-carboxamide], the IC50 was > 10000 nM.

`O=C(NC1CCOCC1)c1cc2ccc(-c3nccc(Nc4ccc5[nH]ncc5c4)n3)cc2[nH]1` [TDI01291, 6-(4-((1H-indazol-5-yl)amino)-pyrimidin-2-yl)-N-(tetrahydro-2H-pyran-4-yl)-1H-indole-2-carboxamide] came in with an IC50 of 573 nM.

For `CC(C)NC(=O)C1Cc2ccc(-c3nccc(Nc4ccc5[nH]ncc5c4)n3)cc2N1` (centres unmarked) [TDI01292, 6-(4-((1H-indazol-5-yl)amino)-pyrimidin-2-yl)-N-isopropyl-indoline-2-carboxamide], the IC50 amounted to 4840 nM. To `CN(C)C(=O)c1cc2ccc(-c3nccc(Nc4ccc(-c5cn[nH]c5)cc4)n3)cc2[nH]1` [TDI01294, 6-(4-((4-(1H-pyrazol-4-yl)phenyl)-amino)-pyrimidin-2-yl)-N,N-dimethyl-1H-indole-2-carboxamide] belongs > 10000 nM. `CNC(=O)c1cc2ccc(-c3nccc(Nc4ccc(-c5cn[nH]c5)cc4)n3)cc2[nH]1` [TDI01296, 6-(4-((4-(1H-pyrazol-4-yl)phenyl)-amino)-pyrimidin-2-yl)-N-methyl-1H-indole-2-carboxamide]: the IC50 was 2870 nM. For `O=C(Nc1ccccn1)c1cc2ccc(-c3nccc(Nc4ccc5[nH]ncc5c4)n3)cc2[nH]1` [TDI01311, 6-(4-((1H-indazol-5-yl)amino)pyrimidin-2-yl)-N-(pyridin-2-yl)-1H-indole-2-carboxamide], the IC50 was > 10000 nM. `CC(C)NC(=O)N1Cc2ccc(-c3nccc(Nc4ccc5[nH]ncc5c4)n3)cc2C1` [TDI01312, 5-(4-((1H-indazol-5-yl)amino)pyrimidin-2-yl)-N-isopropylisoindoline-2-carboxamide] displayed an IC50 of 1840 nM. With `COc1ccc(NC(=O)c2cc3ccc(-c4nccc(Nc5ccc6[nH]ncc6c5)n4)cc3[nH]2)cn1` [TDI01315, 6-(4-((1H-indazol-5-yl)amino)-pyrimidin-2-yl)-N-(6-methoxy-pyridin-3-yl)-1H-indole-2-carboxamide] the figure was 2150 nM; with `CN1CCC(n2cc(NC(=O)c3cc4ccc(-c5nccc(Nc6ccc7[nH]ncc7c6)n5)cc4[nH]3)cn2)CC1` [TDI01316, 6-(4-((1H-indazol-5-yl)amino)-pyrimidin-2-yl)-N-(1-(1-methyl-piperidin-4-yl)-1H-pyrazol-4-yl)-1H-indole-2-carboxamide], 999 nM; with `CN1CCC(N2CCCC(NC(=O)c3cc4ccc(-c5nccc(Nc6ccc7[nH]ncc7c6)n5)cc4[nH]3)C2)CC1` (centres unmarked) [TDI01318, 6-(4-((1H-indazol-5-yl)amino)-pyrimidin-2-yl)-N-(1′-methyl-[1-4′-bipiperidin]-3-yl)-1H-indole-2-carboxamide], 274 nM. With `O=C(NC1CC1)c1cc2ccc(-c3nccc(Nc4ccc(-c5cn[nH]c5)cc4)n3)cc2[nH]1` [TDI01324, 6-(4-((4-(1H-pyrazol-4-yl)phenyl)-amino)-pyrimidin-2-yl)-N-cyclopropyl-1H-indole-2-carboxamide] the figure was 1740 nM; with `O=C(c1cc2ccc(-c3nccc(Nc4ccc(-c5cn[nH]c5)cc4)n3)cc2[nH]1)N1CCC1` [TDI01330, (6-(4-((4-(1H-pyrazol-4-yl)phenyl)-amino)-pyrimidin-2-yl)-1H-indol-2-yl)(azetidin-1-yl)methanone], 7930 nM.
